From US10829530B2, “Analogues of VDAC1-derived peptides” (B. G. NEGEV TECHNOLOGIES AND APPLICATIONS LTD., AT …, priority 2015, dated 2020) come the findings set out here.

Where two headings read alike, the source gives them in different places.

The test system of one data set is THP-1 cells. Nature of the data set: Cell death induction in THP-1 leukemia cells (PI staining, flow cytometry). Type of data set: cell-based, human. As to conditions: THP-1, serum-free medium, 90 min, 37° C. How it is done:
(§1) Cells in suspension were counted (2×10^6/ml) and treated on the same day whereas adherent cells were counted and seeded (1.5−2×10^5/ml) in 12 wells plate 16-24 h before treatment. Cells in suspension or adherent cells were incubated in serum-free medium (200 μl or 500 μl, respectively) with various concentrations of peptide of interest (for 90 min or 6 h, respectively) at 37° C. in the presence of 5% CO2. Cells were collected (adherent cells by trypsinization), centrifuged (1500×g, 5 min), washed once with PBS and analyzed for cell death using propidium iodide (PI) staining and flow cytometer (Beckton-Dickinson, San Jose, Calif.) and BD CellQuest Pro software.
(§2) PI solution was diluted with PBS to a final concentration of 0.5 mg/ml. 2.5 μl of the PI solution were added to each FACS tube, and the tubes were vortexed gently to homogenize the cell suspension. Cell viability was measured in the FACS channel FL3 and data were analyzed using CellQuest Pro software.
Cells of human monocytic cell line derived from an acute monocytic leukemia patient (THP-1 cells, 400,000 cells per well) were used in this experiment.
In general terms: Flow cytometry measures light scatter and fluorescence of single cells or particles in a stream.

Another data set concerns BNL1ME cell line. It is filed as cell-based. As to conditions: serum-free medium, 6 h; for EC50: read-out: EC50 of cell death. As for the experimental part:
as §1, §2
Cells were incubated in a serum-free medium with each peptide type for 6 h at 37° C. in the presence of 5% CO2.

For the next data set, the system named is GL-261 cells. The experiment in a line: Cell death induction in GL-261 glioma cells (PI staining, FACS). As to conditions: GL-261, serum-free medium, 6 h. Type of data set: cell-based, mouse. How it is done:
as §1, §2

The next data set relates to A549. Nature of the data set: Peptide storage stability, read out as death of A549 cells (PI staining, FACS). As to conditions: for activity kept after storage: assayed at 10 μM on A549. It is filed as cell-based. As for the experimental part:
The peptide (0.5 mM in 5% DMSO) was incubated at −20° C., 4° C. or 25° C. for the indicated time, and then assayed (at 10 μM) for its capability to induce death of A549 using PI staining and FACS analysis. In untreated cells, cell death was 3%, while with the peptide, cell death was over 90% (n=2).
The assay conditions were as described in FIG. 8A above.

Data set [1] is described as follows: Peptide solubility (soluble peptide in supernatant, absorbance at 280 nm). Type of data set: physicochemical. As for the experimental part: The peptides were dissolved in 100% DMSO then diluted by about 10-fold to reduce DMSO to 10-11% and the peptide to 4.4 or 4 mM, and the amount of the soluble peptide was analyzed in the supernatant (SUP) following centrifugation to remove insoluble peptide.
The peptides were synthesized by GL Biochem (Shanghai, China) to >95% purity. […] Then the solutions were diluted to peptide concentration of 20 mg/ml (4.86 mM) by adding while mixing 95 μl of distilled water and the diluted solutions were incubated in 37° C. water bath for 30 minutes to allow further solubilization until the solutions became clear. The peptide solutions were then centrifuged for 5 min at 15,000 g and the supernatant of each preparation was transferred to fresh Eppendorf tube with low binding capacity. Aliquots of the obtained solution were taken for further analysis of peptide concentration.
Peptides were dissolved as described hereinabove. Concentration examined was 4 mM; solvent used was DDW/10% DMSO/150 mM NaCl (NaCl added later at a final concentration of 150 mM) as a common physiologically compatible solution for drug administration.
The molecular weight of Tf-D-LP=4111.67 g/mol. […] 8.5 μl DMSO 100% were added to the peptide to form a concentration of 40 mM, and the solution was incubated in a water bath at 37° C. for 15 min until the solution became clear. The solution obtained was diluted by about 10-fold with DDW reaching a final concentration of 4.4 mM (11.1% DMSO), incubated in a water bath at 37° C. for 15 min, and then incubated overnight at 4° C. […] Peptide concentration in each step was analyzed.
Peptide concentration was determined from the absorbance at 280 nm following its denaturation and using the following calculation:
Weight/volume (mg/ml) concentration was calculated according to the equation: mg peptide/ml=(AU×DF×Mw)/[(TrypW #×5560)+(TyrY #×1200)]: • AU—peptide absorbance measured • DF—dilution factor • Mw—Molecular weight • TrypW #—number of Tryptophan in the peptide sequence • TyrY #—number of Tyrosine in the peptide sequence

Another data set deals with PANC-1 cells. The experiment in a line: Cell death induction in PANC-1 pancreatic cancer cells (PI staining, flow cytometry). As to conditions: PANC-1, serum-free medium, 6 h. Type of data set: cell-based, human. As for the experimental part:
as §1, §2
(§3) The human (PANC-1) and mouse (PANC-2) cancerous pancreatic cells were used in this assay. […] Cell death was analyzed by PI staining and percentage of cell death was measured by Flow Cytometery.

In another data set the test system is PANC-2 cells. Nature of the data set: Cell death induction in PANC-2 pancreatic cancer cells (PI staining, flow cytometry). It is filed as cell-based, mouse. As to conditions: PANC-2, serum-free medium, 6 h. How it is done: as §1, §2, §3
The subject of another data set is B16F10.0 melanoma cells. The experiment in a line: Cell death induction in B16F10.0 melanoma cells (PI staining, FACS). As to conditions: B16F10.0, serum-free medium, 6 h. It is filed as cell-based, mouse. How it is done:
as §1, §2
Cell death was analyzed by PI staining and FACS.

In a further data set the test system is U-87MG. It is filed as cell-based. As to conditions: Example 7, n=3, read-out: concentration for inducing 50% cell death (EC50).
Data set [2] concerns glioma-derived stem cell (GSC) line G7. Nature of the data set: Cell death induction in G7 glioma-derived stem cells (PI staining, flow cytometry). It is filed as cell-based, human. As to conditions: n=3, read-out: concentration for inducing 50% cell death (EC50). As for the experimental part:
The G7 GSC cell line was grown using specific glioblastoma stem cell medium, as described previously (Pollard S M et al 2009. Cell Stem Cell. 4(6):568-580.)
The GSC-specific markers, Sox2, Musashi, and Nestin were highly expressed in G7, as compared to U-87MG cells, containing about 1% GSCs, thus confirming the stemness of the cells (FIG. 7B, 7C). Klf4 was expressed in both cell lines with its level in G7 slightly higher. […] Similar results were obtained when apoptosis was assayed using annexinV/PI staining and FACS analysis (FIG. 7E).

For a further data set, the system named is U-87MG cells. The experiment in a line: Intracranial-orthotopic U-87MG xenograft in nude mice (MRI tumor volume, survival). It is filed as in vivo, mouse. As to conditions: administrated intravenously, inferred from effect on brain tumor.

Experimental for U-87MG cells: For the intracranial-orthotopic xenograft mouse model, U-87MG cells (8×10^4) were engrafted into a nude mouse brain using a stereotactic device. […] Mice were subjected to MRI and then sacrificed. Brains were excised and processed for IHC. Tumor volume was analyzed using VivoQuant 2.10 software.
25 and 32 days later, tumor growth was monitored by MRI (FIG. 11A).

As for `CC[C@H](C)[C@H](NC(=O)[C@H](C)NC(=O)[C@@H](N)Cc1c[nH]cn1)C(=O)N[C@@H](Cc1ccc(O)cc1)C(=O)N1CCC[C@H]1C(=O)N[C@@H](CCCNC(=N)N)C(=O)N[C@@H](Cc1c[nH]cn1)C(=O)N[C@H](CO)C(=O)N[C@H](Cc1c[nH]c2ccccc12)C(=O)N[C@@H](C(=O)N[C@H](Cc1c[nH]c2ccccc12)C(=O)N[C@H](CCC(=O)O)C(=O)N[C@H](CCCCN)C(=O)N[C@H](CCCCN)C(=O)N[C@H](CC(C)C)C(=O)N[C@H](CCC(=O)O)C(=O)N[C@@H](C(=O)N[C@H](C)C(=O)N[C@@H](C(=O)N[C@H](CC(N)=O)C(=O)N[C@H](CC(C)C)C(=O)N[C@H](C)C(=O)N[C@H](Cc1c[nH]c2ccccc12)C(=O)N[C@@H](C(=O)N[C@H](C)C(=O)NCC(=O)N[C@H](CC(N)=O)C(=O)N[C@H](CO)C(=O)N[C@H](CC(N)=O)C(=O)N[C@H](CCCCN)C(=O)N[C@H](Cc1c[nH]c2ccccc12)C(=O)N[C@@H](C(=O)N[C@H](Cc1c[nH]c2ccccc12)C(=O)N[C@H](CCCCN)C(=O)O)[C@H](C)O)[C@H](C)O)C(C)C)[C@H](C)O)[C@H](C)O` [Tf-D-LP4, His-Ala-Ile-Tyr-Pro-Arg-His-D-Ser-D-Trp-D-Thr-D-Trp-D-Glu-D-Lys-D-Lys-D-Leu-D-Glu-D-Thr-D-Ala-D-Val-D-Asn-D-Leu-D-Ala-D-Trp-D-Thr-D-Ala-D-Gly-D-Asn-D-Ser-D-Asn-D-Lys-D-Trp-D-Thr-D-Trp-D-Lys], the results for the EC50 in the data set on THP-1 cells, with BNL1ME cell line and with GL-261 cells were 8 µM, 2700 nM and 3300 nM, respectively. For the same compound, in the data set on BNL1ME cell line, the “maximal cell death induction” value is reported as 70%. For the same compound, the results for the “activity kept after storage” value in the data set on A549 (0.5 mM in 5% DMSO stored at 4° C. or 25° C.) and with A549 (0.5 mM in 5% DMSO stored at −20° C.) were 75% and “full activity”, respectively. Also, the cell death entry in the data set on A549 (A549, 10 μM peptide, n=2, untreated cells 3%) is recorded as “over 90%”. Moreover, in data set [1] (100% DMSO), the “solubility in 100% DMSO” value is reported as “high solubility”. For the same compound, the “soluble peptide out of the total peptide content” value in data set [1] (DMSO concentration reduced to 10%, about 4 mM peptide) is reported as “about 10%”.

With `CC[C@H](C)[C@H](NC(=O)[C@H](Cc1ccc(O)cc1)NC(=O)[C@@H]1CCCN1C(=O)[C@H](CCCNC(=N)N)NC(=O)[C@H](Cc1c[nH]cn1)NC(=O)[C@@H](CO)NC(=O)[C@@H](Cc1c[nH]c2ccccc12)NC(=O)[C@H](NC(=O)[C@@H](Cc1c[nH]c2ccccc12)NC(=O)[C@@H](CCC(=O)O)NC(=O)[C@@H](CCCCN)NC(=O)[C@@H](CCCCN)NC(=O)[C@@H](CC(C)C)NC(=O)[C@@H](CCC(=O)O)NC(=O)[C@H](NC(=O)[C@@H](C)NC(=O)[C@H](NC(=O)[C@@H](CC(N)=O)NC(=O)[C@@H](CC(C)C)NC(=O)[C@@H](C)NC(=O)[C@@H](Cc1c[nH]c2ccccc12)NC(=O)[C@H](NC(=O)[C@@H](C)NC(=O)CNC(=O)[C@@H](CC(N)=O)NC(=O)[C@@H](CO)NC(=O)[C@@H](CC(N)=O)NC(=O)[C@@H](CCCCN)NC(=O)[C@@H](Cc1c[nH]c2ccccc12)NC(=O)[C@H](NC(=O)[C@@H](Cc1c[nH]c2ccccc12)NC(=O)[C@H](N)CCCCN)[C@H](C)O)[C@H](C)O)C(C)C)[C@H](C)O)[C@H](C)O)C(=O)N[C@@H](C)C(=O)N[C@@H](Cc1c[nH]cn1)C(=O)O` [Retro-Tf-D-LP4, D-Lys-D-Trp-D-Thr-D-Trp-D-Lys-D-Asn-D-Ser-D-Asn-D-Gly-D-Ala-D-Thr-D-Trp-D-Ala-D-Leu-D-Asn-D-Val-D-Ala-D-Thr-D-Glu-D-Leu-D-Lys-D-Lys-D-Glu-D-Trp-D-Thr-D-Trp-D-ser-His-Arg-Pro-Tyr-Ile-Ala-His], the EC50 with THP-1 cells is 4.5 µM; in the data set with BNL1ME cell line it was 2500 nM; in the data set on PANC-1 cells, around 4 µM; in the data set with PANC-2 cells it was around 4 µM; in the data set with B16F10.0 melanoma cells, 7 µM; in the data set on GL-261 cells, 2200 nM. Moreover, the results for the EC50 (with U-87MG; in [2]) were 1500 ± 300 nM and 2500 ± 300 nM, respectively. In addition, the “solubility in 100% DMSO” value in data set [1] is reported as “high solubility”. For the same compound, in the data set with U-87MG cells, the “crossing of the blood brain barrier (BBB)” value is “can cross the BBB”.
